Test results as given in patent US10538532B2, “Hepatitis B antiviral agents” (ENANTA PHARMACEUTICALS, INC., priority 2016, dated 2020).
Like-named read-outs stand apart in the source and are kept apart here.

Key:
HBV = test: HepAD38 antiviral assay: reduction of viral product accumulation (virion DNA by qPCR, HBsAg or HBeAg by ELISA); assay type: cell-based, hepatitis B virus; details: HepAD38 cells, five days after compound addition, concentration reducing viral product accumulation by 50% relative to no drug controls, read-out: HepAD38 EC50
Method in brief: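 EC50 values represent 50% reduction of viral product accumulation in lysates or supernatants relative to untreated controls, with virion DNA read by qPCR and HBsAg/HBeAg by ELISA. Measurements followed 5 days of treatment, or 8 days with compound renewed on d2 and d5. Cells were tetracycline-depleted HepAD38 at 35,000/well, dosed with a 1:200 dilution of DMSO stocks.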

[1] = Compound toxicity, ATPLite total ATP levels; assay type: cell-based; details: human, HepAD38 cells, three days after compound addition, concentration reducing total ATP levels by 50% relative to no drug controls
Protocol: Methods: HepAD38 cells are maintained as previously reported (Ladner et al, Antimicrob. Agents Chemother. 1997, […], 1715). Briefly, cells are passaged upon attaining confluency in DMEM/F12 media in the presence of 10% FBS, Penn/Strep, 250 μg/mL G418, and 1 ug/ml tetracycline. Novel compounds are screened by first washing cells three times with PBS to remove tetracycline, and plating in 96 well plates at 35,000 cells/well. Compounds dissolved in DMSO are then diluted 1:200 into wells containing cells. Five days after compound addition, material is harvested for analysis. For an extended 8 day analysis, cells are plated and treated as described above, but media and compound are refreshed on d2 and d5 post initial treatment.
Compound toxicity is evaluated by seeding cells at 15,000 cells/well and treating with compound as described above.

[2] = Hepatitis B virus, HePAD38, 120 h

Compound | EC50 (HBV; [2]) | CC50 at 3 days ([1]; numeric bounds) | EC50 (HBV) | CC50 at 3 days ([1]; class symbols)
CC[C@]1(O)C2CCC1C[C@@H](S(=O)(=O)c1cc(C(=O)Nc3cc(F)c(F)c(F)c3)ccc1Cl)C2 [Example 252] | < 100 nM | > 6250 nM |  | 
C[C@]1(O)C2CCC1C[C@H](S(=O)(=O)c1cc(C(=O)Nc3cc(F)c(F)c(F)c3)ccc1Cl)C2 [Example 253] |  |  | < 100 nM | > 25000 nM
O=C(Nc1cc(F)c(F)c(F)c1)c1ccc(Cl)c(S(=O)(=O)[C@H]2CC3CCC(C2)[C@]3(O)Cn2cccn2)c1 [Example 256] | < 100 nM | > 12500 nM |  | 
[N-]=[N+]=NC[C@]1(O)C2CCC1C[C@@H](S(=O)(=O)c1cc(C(=O)Nc3cc(F)c(F)c(F)c3)ccc1Cl)C2 [Example 257] | < 100 nM |  |  | > 25000 nM
[N-]=[N+]=NC[C@]1(O)C2CCC1C[C@H](S(=O)(=O)c1cc(C(=O)Nc3cc(F)c(F)c(F)c3)ccc1Cl)C2 [Example 258] | < 100 nM | > 12500 nM |  | 
CS(=O)(=O)NC[C@]1(O)C2CCC1C[C@@H](S(=O)(=O)c1cc(C(=O)Nc3cc(F)c(F)c(F)c3)ccc1Cl)C2 [Example 259] | < 100 nM | > 12500 nM |  | 
O=C1NC[C@]2(O1)C1CCC2C[C@@H](S(=O)(=O)c2cc(C(=O)Nc3cc(F)c(F)c(F)c3)ccc2Cl)C1 [Example 260] | < 100 nM |  |  | > 25000 nM
C=C[C@]1(O)CC2CC[C@@H](C1)[C@H]2S(=O)(=O)c1cc(C(=O)Nc2cc(F)c(F)c(F)c2)ccc1Cl [Example 267] | < 100 nM |  |  | > 25000 nM
[N-]=[N+]=NC[C@@]1(O)CC2CC[C@@H](C1)[C@H]2S(=O)(=O)c1cc(C(=O)Nc2cc(F)c(F)c(F)c2)ccc1Cl [Example 271] | < 100 nM | > 12500 nM |  | 
NC(=O)OC[C@@H]1CC2CC[C@@H](C1)[C@H]2S(=O)(=O)c1cc(C(=O)Nc2cc(F)c(F)c(F)c2)ccc1Cl [Example 272] | < 100 nM | > 12500 nM |  | 
CS(=O)(=O)NC[C@]1(O)C2CCC1C[C@H](S(=O)(=O)c1cc(C(=O)Nc3cc(F)c(F)c(F)c3)ccc1Cl)C2 [Example 273] | < 100 nM | > 12500 nM |  | 
O=C1NC[C@]2(O1)C1CCC2C[C@H](S(=O)(=O)c2cc(C(=O)Nc3cc(F)c(F)c(F)c3)ccc2Cl)C1 [Example 274] | < 100 nM |  |  | > 25000 nM
N#CC[C@]1(O)C2CCC1C[C@@H](S(=O)(=O)c1cc(C(=O)Nc3cc(F)c(F)c(F)c3)ccc1Cl)C2 [Example 275] | < 100 nM |  |  | > 25000 nM
O=C(Nc1cc(F)c(F)c(F)c1)c1ccc(Cl)c(S(=O)(=O)[C@H]2CC3CCC(C2)[C@]3(O)Cc2nnn[nH]2)c1 [Example 276] | > 400 nM |  |  | > 25000 nM
NC[C@@]1(O)CC2CC[C@@H](C1)[C@H]2S(=O)(=O)c1cc(C(=O)Nc2cc(F)c(F)c(F)c2)ccc1Cl [Example 277] | 100 to 400 nM |  |  | < 10000 nM
CCS(=O)(=O)NC[C@@]1(O)CC2CC[C@@H](C1)[C@H]2S(=O)(=O)c1cc(C(=O)Nc2cc(F)c(F)c(F)c2)ccc1Cl [Example 278] | 100 to 400 nM |  |  | > 25000 nM
O=C(Nc1cc(F)c(F)c(F)c1)c1ccc(Cl)c(S(=O)(=O)[C@H]2C3CC[C@H]2C[C@@](O)(CNS(=O)(=O)C2CC2)C3)c1 [Example 279] | 100 to 400 nM |  |  | > 25000 nM
CC(=O)NC[C@@]1(O)CC2CC[C@@H](C1)[C@H]2S(=O)(=O)c1cc(C(=O)Nc2cc(F)c(F)c(F)c2)ccc1Cl [Example 280] | 100 to 400 nM |  |  | > 25000 nM
O=C(Nc1cc(F)c(F)c(F)c1)c1ccc(Cl)c(S(=O)(=O)[C@H]2C3CC[C@H]2C[C@](O)(c2ncc[nH]2)C3)c1 [Example 281] | < 100 nM |  |  | > 25000 nM
C[C@]1(O)CC2CC[C@@H](C1)[C@H]2S(=O)(=O)c1cc(C(=O)Nc2cc(F)c(F)c(F)c2)ccc1Cl [Example 282] | < 100 nM |  |  | > 25000 nM

Compound | EC50 (HBV; [2]) | CC50 at 3 days ([1]; numeric bounds) | EC50 (HBV) | CC50 at 3 days ([1]; class symbols)
O=C(Nc1cc(F)c(F)c(F)c1)c1ccc(Cl)c(S(=O)(=O)[C@H]2C3CC[C@H]2C[C@@H](c2ncc[nH]2)C3)c1 [Example 283] | 100 to 400 nM |  |  | < 10000 nM
N#C[C@H]1CC2CC[C@@H](C1)[C@H]2S(=O)(=O)c1cc(C(=O)Nc2cc(F)c(F)c(F)c2)ccc1Cl [Example 284] | < 100 nM | > 3120 nM |  | 
O=C1NC[C@]2(CC3CC[C@@H](C2)[C@H]3S(=O)(=O)c2cc(C(=O)Nc3cc(F)c(F)c(F)c3)ccc2Cl)O1 [Example 285] | 100 to 400 nM |  |  | > 25000 nM
[N-]=[N+]=NC[C@]1(O)CC2CC[C@@H](C1)[C@H]2S(=O)(=O)c1cc(C(=O)Nc2cc(F)c(F)c(F)c2)ccc1Cl [Example 286] | < 100 nM |  |  | 10000 to 25000 nM
[N-]=[N+]=N[C@]1(CO)CC2CC[C@@H](C1)[C@H]2S(=O)(=O)c1cc(C(=O)Nc2cc(F)c(F)c(F)c2)ccc1Cl [Example 287] | 100 to 400 nM |  |  | > 25000 nM
COC(=O)N[C@H](C(=O)NC[C@@]1(O)CC2CC[C@@H](C1)[C@H]2S(=O)(=O)c1cc(C(=O)Nc2cc(F)c(F)c(F)c2)ccc1Cl)C(C)C [Example 288] | 100 to 400 nM |  |  | 10000 to 25000 nM
COC(=O)N1C[C@]2(CC3CC[C@@H](C2)[C@H]3S(=O)(=O)c2cc(C(=O)Nc3cc(F)c(F)c(F)c3)ccc2Cl)OC1=O [Example 289] | 100 to 400 nM | > 12500 nM |  | 
C=CCOC(=O)OC[C@]1(O)CC2CC[C@@H](C1)[C@H]2S(=O)(=O)c1cc(C(=O)Nc2cc(F)c(F)c(F)c2)ccc1Cl [Example 290] | < 100 nM |  |  | > 25000 nM
N#CC[C@]1(O)CC2CC[C@@H](C1)[C@H]2S(=O)(=O)c1cc(C(=O)Nc2cc(F)c(F)c(F)c2)ccc1Cl [Example 291] | < 100 nM |  |  | 10000 to 25000 nM
N#C[C@]1(CO)CC2CC[C@@H](C1)[C@H]2S(=O)(=O)c1cc(C(=O)Nc2cc(F)c(F)c(F)c2)ccc1Cl [Example 292] | < 100 nM |  |  | 10000 to 25000 nM
CS(=O)(=O)OC[C@@H]1CC2CC[C@@H](C1)[C@H]2S(=O)(=O)c1cc(C(=O)Nc2cc(F)c(F)c(F)c2)ccc1Cl [Example 293] | < 100 nM | > 6250 nM |  | 
O=C(Nc1cc(F)c(F)c(F)c1)c1ccc(Cl)c(S(=O)(=O)[C@H]2CC3CCC(C2)[C@]3(O)CNS(=O)(=O)C2CC2)c1 [Example 294] | < 100 nM | > 6250 nM |  | 
O=C(Nc1cc(F)c(F)c(F)c1)c1ccc(Cl)c(S(=O)(=O)[C@H]2CC3CCC(C2)[C@]3(O)CNS(=O)(=O)c2cccnc2)c1 [Example 295] | < 100 nM | > 12500 nM |  | 
O=C(Nc1cc(F)c(F)c(F)c1)c1ccc(Cl)c(S(=O)(=O)[C@H]2CC3CCC(C2)[C@]3(O)CNS(=O)(=O)c2ccccn2)c1 [Example 296] | < 100 nM | > 6250 nM |  | 
CC(C)(C)OC(=O)NC1CC2CC[C@@H](C1)[C@H]2S(=O)(=O)c1cc(C(=O)Nc2cc(F)c(F)c(F)c2)ccc1Cl (some centres unmarked) [Example 297] | < 100 nM | > 6250 nM |  | 
NC1CC2CC[C@@H](C1)[C@H]2S(=O)(=O)c1cc(C(=O)Nc2cc(F)c(F)c(F)c2)ccc1Cl (some centres unmarked) [Example 298] | 100 to 400 nM |  |  | 10000 to 25000 nM
CS(=O)(=O)NC1CC2CC[C@@H](C1)[C@H]2S(=O)(=O)c1cc(C(=O)Nc2cc(F)c(F)c(F)c2)ccc1Cl (some centres unmarked) [Example 299] | < 100 nM |  |  | > 25000 nM
COC(=O)N[C@@H](C(=O)NC1CC2CC[C@@H](C1)[C@H]2S(=O)(=O)c1cc(C(=O)Nc2cc(F)c(F)c(F)c2)ccc1Cl)C(C)C (some centres unmarked) [Example 300] | < 100 nM | > 6250 nM |  | 
O=C(Nc1cc(F)c(F)c(F)c1)c1ccc(Cl)c(S(=O)(=O)[C@H]2CC3CCC(C2)[C@@]3(O)c2nccs2)c1 [Example 301] | > 400 nM |  |  | 10000 to 25000 nM
O=C(Nc1cc(F)c(F)c(F)c1)c1ccc(Cl)c(S(=O)(=O)[C@H]2CC3CCC(C2)[C@]3(O)c2ncc[nH]2)c1 [Example 302] | < 100 nM |  |  | 10000 to 25000 nM
